# Literature values in patent US8858979B1, “Service induced byproducts for localized drug delivery in orthopaedic implants” (Clemson University, priority 2011, dated 2014).
# Tested on: cell proliferation
# Conditions: reported data, estimated
structure (smiles),measurement,value
"NCCCC(O)(P(=O)([O-])O)P(=O)(O)O.[Na+] [alendronate, alendronate sodium]",concentration that can inhibit cell proliferation,about 10^−4 M
